Measurements as given in patent US20220273809A1, “AXL ANTIBODY-DRUG CONJUGATES FOR USE IN TREATING CANCER” (GENMAB A/S, priority 2019, published 2022).
Non-standard residues stand in square brackets, D forms with d. Residues, ends and D or L forms follow the SMILES beside them. *: point of attachment. Dolaproine = CO[C@@H]([C@@H]1CCCN1)[C@@H](C)C(=O)O; Dil = CC[C@H](C)[C@H](NC)[C@@H](CC(=O)O)OC; X1 = C[C@@H](N*)[C@@H](O)c1ccccc1; NMeV = CN[C@H](C(=O)O)C(C)C

Key:
[1] = system: LCLC-103H cells; assay: HMGB1 secretion in vitro (ELISA); assay type: cell-based, human; settings: 48 hrs; ADC 2 μg/mL, MMAE 10 or 50 nM, paclitaxel 1 μM
Experimental: (§1) MDA-MB-231 or LCLC-103H cells were seeded in quadruplicate at 125,000 cells per well (MDA-MB-231) or 25,000 cells/well (LCLC-103H) in 24-well plates and grown 3-4 hrs at 37° C. Subsequently, IgG1-AXL-107-vcMMAE (2 μg/mL), free monomethyl auristatin E (MMAE; 10 or 50 nM), paclitaxel (1 μM), or isotype control ADC (IgG1-b12-vcMMAE; 2 μg/mL) were added to the wells and plates were incubated for 48 hrs at 37° C. After incubation cells were pelleted at 1000 rpm for 3 min at RT and supernatants were transferred to a new 96-wells plate. HMGB1 was measured in the supernatant using a HMGB1-specific ELISA kit (IBL, Cat.no ST51011) according to manufacturer's instructions.

[2] = system: MDA-MB-231 cells; assay: HMGB1 secretion in vitro (ELISA); assay type: cell-based, human; settings: 48 hrs; ADC 2 μg/mL, MMAE 10 or 50 nM, paclitaxel 1 μM
Experimental: as §1

[3] = system: LCLC-103H cells; assay: Extracellular ATP release in vitro (CellTiterGlo); assay type: cell-based, human; settings: 48 hr, 100% PBS; ADC 2 μg/mL, paclitaxel 1 μM, MMAE 10 or 50 nM
Experimental: (§2) LCLC-103H or MDA-MB-231 cells were seeded in quadruplicate at 25,000 cells per well for LCLC-103H cells or 125,000 cells per well for MDA-MB-231 cells in 24-well plates and grown 3 hours at 37° C. Subsequently, IgG1-AXL-107-vcMMAE (2 μg/mL), free monomethyl auristatin E (MMAE; 10 or 50 nM), paclitaxel (1 μM), or isotype control ADC (IgG1-b12-vcMMAE; 2 μg/mL) were added per well.
(§3) Plates were incubated for 48 hr at 37° C. and after incubation each well was washed with 200 μL PBS. After the final wash, PBS was replaced with 200 μL fresh 100% PBS or 70% PBS (hypotonic) for the indicated times, harvested and transferred to a 96-well plate, and then spun at 1000 rpm for 2 min at RT. Supernatants were transferred to a new 96-well (optiwhite) plate and ATP was measured using CellTiterGlo Luminescent Cell Viability Assay (Promega, Cat.no G7570) according to manufacturer's instructions. All steps were performed with ice-cold PBS and in the dark.

[4] = system: MDA-MB-231 cells; assay: Extracellular ATP release in vitro (CellTiterGlo); assay type: cell-based, human; settings: 48 hr
Experimental: as §2, §3

[5] = system: LCLC-103H cells; assay: Calreticulin surface expression in vitro (flow cytometry); assay type: cell-based, human; settings: 48 h; for cell surface expression of calreticulin (MFI) compared to untreated cells: ADCs 2 μg/mL, MMAE 10 or 50 nM, paclitaxel 1 μM; for percentage of calreticulin positive cells: compared to untreated or isotype control ADC
Experimental: (§4) LCLC-103H or MDA-MB-231 cells were grown to 70% to 80% confluence in 6-well plates, washed with serum-free medium and incubated with IgG1-AXL-107-vcMMAE (2 μg/mL), free monomethyl auristatin E (MMAE, SAFC, cat.no SG10; 10 or 50 nM), paclitaxel (1 μM), or isotype control ADC (IgG1-b12-vcMMAE; 2 μg/mL) in serum-free medium (RPMI1640, Lonza BE17-603E) for 48 hours (LCLC-103H) or 72 hours (MDA-MB-231). After incubation, supernatant and cells were collected and washed in PBS/0.1% BSA/0.02% azide (FACS buffer). Cells were then incubated with a phycoerythrin (PE)-conjugated mouse anti-human calreticulin antibody (Enzo, Cat no. ADI-SPA-601PE-D, lot. 10021835) for 30 min at 4° C. in the dark. A PE-conjugated mouse isotype control antibody (Enzo, cat no. ADI-SAB-600PE-D, lot. 08071817) was included as a control. After washing with FACS buffer, cells were analyzed with flow cytometry in the presence of DAPI (BD; cat no. 564907, lot. 8012653) or TO-PRO-3 (Thermo Fisher, cat no. T3605, lot. 1976612). Calreticulin expression was determined as PE positive cells and the percentage of calreticulin positive cells over isotype control was obtained on DAPI or TO-PRO-3 negative cells.

[6] = system: MDA-MB-231 cells; assay: as above; assay type: cell-based, human; settings: 72 h; for cell surface expression of calreticulin (MFI) compared to untreated cells: ADCs 2 μg/mL, MMAE 10 or 50 nM, paclitaxel 1 μM; for percentage of calreticulin positive cells: compared to untreated or isotype control ADC
Experimental: as §4

[7] = molecular target: mouse Axl (Mus musculus, UniProt Q00993); assay: Binding to mouse Axl
mouse Axl, sequence (Q00993 19-888): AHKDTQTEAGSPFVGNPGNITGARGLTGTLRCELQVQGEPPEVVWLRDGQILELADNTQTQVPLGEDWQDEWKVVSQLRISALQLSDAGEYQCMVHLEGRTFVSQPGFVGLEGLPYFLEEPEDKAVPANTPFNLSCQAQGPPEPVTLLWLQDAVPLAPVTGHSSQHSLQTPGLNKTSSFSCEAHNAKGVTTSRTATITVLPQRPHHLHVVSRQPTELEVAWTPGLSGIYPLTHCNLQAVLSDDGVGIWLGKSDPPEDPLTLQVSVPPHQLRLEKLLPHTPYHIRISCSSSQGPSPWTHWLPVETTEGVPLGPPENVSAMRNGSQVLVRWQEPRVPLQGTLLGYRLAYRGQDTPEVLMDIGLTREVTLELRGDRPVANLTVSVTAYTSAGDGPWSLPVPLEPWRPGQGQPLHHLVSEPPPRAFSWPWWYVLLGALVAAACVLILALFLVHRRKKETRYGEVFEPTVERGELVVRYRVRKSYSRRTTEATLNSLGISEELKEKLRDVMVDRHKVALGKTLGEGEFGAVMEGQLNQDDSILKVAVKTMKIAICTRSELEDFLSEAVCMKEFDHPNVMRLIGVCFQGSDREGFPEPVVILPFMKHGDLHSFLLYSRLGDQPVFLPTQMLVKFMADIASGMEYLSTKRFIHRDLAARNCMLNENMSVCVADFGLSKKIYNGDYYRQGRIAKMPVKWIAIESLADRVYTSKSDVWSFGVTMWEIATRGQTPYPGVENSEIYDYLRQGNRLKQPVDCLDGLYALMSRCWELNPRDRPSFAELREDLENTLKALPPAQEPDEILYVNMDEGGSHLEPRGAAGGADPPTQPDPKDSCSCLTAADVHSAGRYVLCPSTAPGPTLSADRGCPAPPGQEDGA

[8] = system: LXFA 526; settings: 4 mg/kg i.v.; Boshuizen et al, Nature Med 2018; cited from earlier work
[9] = system: LCLC-103H NSCLC cell line-derived xenograft; assay: LCLC-103H NSCLC xenograft model with MART-1-specific human T cells; assay type: in vivo, mice; settings: ADC 1 mg/kg weekly i.v. with control T cells; anti-PD1 5 mg/kg weekly i.p. with MART-1 T cells and control ADC
Experimental: (§5) The anti-tumor activity of IgG1-AXL-107-vcMMAE in combination with anti-PD1 (pembrolizumab) was evaluated in the LCLC-103H NSCLC cell line-derived xenograft model in mice, which systemically received human T-cells that were engineered to express a specific T-cell receptor (TCR) against MART-1. Before inoculation of mice with LCLC-103H cells, the LCLC-103H cells were transduced with the antigen (MART-1) as well as the correct HLA haplotype (HLA-A2) in order for the MART-1-specific T cells to recognize the tumor cells.
8-14 week old male and female NOD-SCID Gamma (NSGTM) mice (bred in-house at the Netherlands Cancer Institute (NKI), Amsterdam, The Netherlands) were subcutaneously injected in the right flank with 1×10^6 […] tumor cells. Tumors were measured three times per week with a caliper, and when tumors were 50 mm3 (after 16 days), mice were randomized over the following treatment groups: • 1. Control T cells+Control ADC (n=7) • 2. MART-1 T cells+Control ADC (n=7) • 3. MART-1 T cells+Control ADC+anti-PD1 (n=7) • 4. Control T cells+IgG1-AXL-107-vcMMAE (n=11) • 5. MART-1 T cells+IgG1-AXL-107-vcMMAE (n=11) • 6. MART-1 T cells+IgG1-AXL-107-vcMMAE+anti-PD1 (n=11) […]
(§6) Tumor volumes were measured 3 times per week by an independent animal technician in a blinded fashion. Tumor volume was calculated as follows: […]. […]

[10] = system: BLM human melanoma cell line-derived xenograft; assay: BLM melanoma xenograft model with MART-1-specific human T cells; assay type: in vivo, mice; settings: ADC single dose 4 mg/kg i.v. with control or MART-1 T cells; anti-PD1 5 mg/kg weekly i.p. with MART-1 T cells and control ADC
Experimental: as §5, with “the BLM human melanoma” for “the LCLC-103H NSCLC”, “a melanoma-specific” for “a specific”, “with BLM” for “with LCLC-103H”, “the BLM” for “the LCLC-103H”
Melanoma cell line BLM was cultured in DMEM (Gibco), with fetal bovine serum (Sigma), 100 U/mL penicillin (Gibco) and 0.1 mg/mL streptomycin (Gibco) under standard conditions, and was regularly confirmed to be mycoplasma-free by PCR. […]
8-14 week old male and female NOD-SCID Gamma (NSGTM) mice (bred in-house at the Netherlands Cancer Institute (NKI), Amsterdam, The Netherlands) were subcutaneously injected in the right flank with 1×10^6 BLM tumor cells. Tumors were measured three times per week with a caliper, and when tumors were 100 mm3 (after 7 days) the animals were randomized over the following treatment groups: • 1. […]
as §6

[11] = system: LXFA 677; settings: 4 mg/kg i.v.; Boshuizen et al, Nature Med 2018; cited from earlier work
[12] = hypotonic conditions (70% PBS), ADCs 2 μg/mL, MMAE 50 nM, paclitaxel 1 μM

Compound | HMGB1 secretion compared to untreated cells [1] | HMGB1 secretion compared to untreated cells [2] | ATP release compared to untreated cells [3] | ATP release compared to untreated cells ([4]; 100% PBS, 10 nM MMAE) | ATP release compared to untreated cells ([4]; hypotonic conditions (70% PBS), 10 nM MMAE) [fold] | ATP release compared to untreated cells [4, 12] | cell surface expression of calreticulin (MFI) compared to untreated cells [5] | percentage of calreticulin positive cells [5] | cell surface expression of calreticulin (MFI) compared to untreated cells [6] | percentage of calreticulin positive cells [6] | binding to mouse Axl [7] | anti-tumor activity / tumor growth [8] | anti-tumor effect (tumor size) [9] | anti-tumor effect (tumor size) [10] | anti-tumor activity / tumor growth [11]
CC[C@H](C)[C@@H]([C@@H](CC(=O)N1CCC[C@H]1[C@H](OC)[C@@H](C)C(=O)N[C@H](C)[C@@H](O)c1ccccc1)OC)N(C)C(=O)[C@@H](NC(=O)[C@@H](NC)C(C)C)C(C)C [MMAE, monomethyl auristatin E] (H-[NMeV]V[Dil][Dolaproine]-X1) | similar | around 4 fold | comparable levels | about 10 fold | ~26 | about 10 fold | comparable | increased | comparable | increased |  |  |  |  | 
CC(=O)O[C@H]1C(=O)[C@@]2(C)[C@H]([C@H](OC(=O)c3ccccc3)[C@]3(O)C[C@H](OC(=O)[C@H](O)[C@@H](NC(=O)c4ccccc4)c4ccccc4)C(C)=C1C3(C)C)[C@]1(OC(C)=O)CO[C@@H]1C[C@@H]2O [paclitaxel] | about 11 fold | around 4 fold | comparable levels |  |  | ~15 fold | comparable | increased | comparable | increased |  |  |  |  | 
IgG1-AXL-107-vcMMAE: anti-human AXL IgG1-kappa antibody conjugated, on an average of 4 cysteinyl, to MMAE via cleavable mc-val-cit-PABC linker | about 7.5 fold | about 1.6 fold | about 3 fold |  |  | ~7 fold | about 1.4 fold | increased | about 3.5 fold | increased | does not bind | strong anti-tumor activity | some tumor growth inhibition | induced tumor regression | strong anti-tumor activity
anti-PD1: anti-PD1 antibody pembrolizumab (KEYTRUDA, MSD), obtained from SelleckChem |  |  |  |  |  |  |  |  |  |  |  |  | no enhanced tumor growth inhibition | no enhanced tumor growth inhibition | 
